From the NIST ThermoML archive (doi:10.1016/j.fluid.2013.11.026)

Legend:
[1] = excess molar enthalpy (molar enthalpy of mixing); xn = mol fraction of the nth substance listed; details: 101 kPa, Liquid, Calvet calorimetry
[2] = xn = mol fraction of the nth substance listed; details: 101 kPa, Liquid, Vibrating tube method
[3] = 101.33 kPa, Liquid, Vibrating tube method
[4] = refractive index (Na D-line) (dimensionless); details: 101.33 kPa, Liquid, Standard Abbe refractometry

CCCCOC=O [butyl methanoate] + CCCCC
Details | excess molar enthalpy [kJ/mol] | mass density [kg/m3]
[1], 291.15 K, x1 = 0.0661 | 0.324 | –
[1], 291.15 K, x1 = 0.1254 | 0.515 | –
[1], 291.15 K, x1 = 0.1836 | 0.667 | –
[1], 291.15 K, x1 = 0.2321 | 0.779 | –
[1], 291.15 K, x1 = 0.2846 | 0.854 | –
[1], 291.15 K, x1 = 0.3351 | 0.896 | –
[1], 291.15 K, x1 = 0.3832 | 0.919 | –
[1], 291.15 K, x1 = 0.4276 | 0.924 | –
[1], 291.15 K, x1 = 0.4704 | 0.915 | –
[1], 291.15 K, x1 = 0.5095 | 0.902 | –
[1], 291.15 K, x1 = 0.5587 | 0.872 | –
[1], 291.15 K, x1 = 0.6121 | 0.822 | –
[1], 291.15 K, x1 = 0.6666 | 0.745 | –
[1], 291.15 K, x1 = 0.7272 | 0.637 | –
[1], 291.15 K, x1 = 0.799 | 0.493 | –
[1], 291.15 K, x1 = 0.8702 | 0.318 | –
[1], 291.15 K, x1 = 0.9372 | 0.165 | –
[1], 298.15 K, x1 = 0.0471 | 0.313 | –
[1], 298.15 K, x1 = 0.0941 | 0.544 | –
[1], 298.15 K, x1 = 0.1606 | 0.74 | –
[1], 298.15 K, x1 = 0.2273 | 0.87 | –
[1], 298.15 K, x1 = 0.2903 | 0.954 | –
[1], 298.15 K, x1 = 0.3523 | 0.996 | –
[1], 298.15 K, x1 = 0.4102 | 1.004 | –
[1], 298.15 K, x1 = 0.4611 | 0.988 | –
[1], 298.15 K, x1 = 0.5095 | 0.959 | –
[1], 298.15 K, x1 = 0.5166 | 0.943 | –
[1], 298.15 K, x1 = 0.5673 | 0.905 | –
[1], 298.15 K, x1 = 0.6237 | 0.845 | –
[1], 298.15 K, x1 = 0.6862 | 0.742 | –
[1], 298.15 K, x1 = 0.754 | 0.632 | –
[1], 298.15 K, x1 = 0.8174 | 0.503 | –
[1], 298.15 K, x1 = 0.8803 | 0.341 | –
[1], 298.15 K, x1 = 0.9477 | 0.168 | –
[2], 291.15 K, x1 = 0.0482 | – | 640.01
[2], 291.15 K, x1 = 0.1029 | – | 654.1
[2], 291.15 K, x1 = 0.1541 | – | 667.59
[2], 291.15 K, x1 = 0.2028 | – | 680.41
[2], 291.15 K, x1 = 0.2999 | – | 706.35
[2], 291.15 K, x1 = 0.3486 | – | 719.53
[2], 291.15 K, x1 = 0.453 | – | 747.88
[2], 291.15 K, x1 = 0.5029 | – | 761.43
[2], 291.15 K, x1 = 0.5974 | – | 786.96
[2], 291.15 K, x1 = 0.7 | – | 814.79
[2], 291.15 K, x1 = 0.8074 | – | 843.81
[2], 291.15 K, x1 = 0.8966 | – | 868.4
[2], 291.15 K, x1 = 0.9452 | – | 881.04
[2], 291.15 K, x1 = 1 | – | 895.86
[2], 298.15 K, x1 = 0.0584 | – | 635.57
[2], 298.15 K, x1 = 0.1147 | – | 650.09
[2], 298.15 K, x1 = 0.1936 | – | 670.91
[2], 298.15 K, x1 = 0.301 | – | 699.46
[2], 298.15 K, x1 = 0.343 | – | 710.8
[2], 298.15 K, x1 = 0.3886 | – | 723.15
[2], 298.15 K, x1 = 0.4521 | – | 740.45
[2], 298.15 K, x1 = 0.4958 | – | 752.3
[2], 298.15 K, x1 = 0.5442 | – | 765.49
[2], 298.15 K, x1 = 0.6477 | – | 793.55
[2], 298.15 K, x1 = 0.7529 | – | 822.18
[2], 298.15 K, x1 = 0.8993 | – | 861.53
[2], 298.15 K, x1 = 1 | – | 888.47

CCOC=O [ethyl methanoate]
Details | mass density, [3] [kg/m3] | refractive index, [4]
291.15 K | 923.4 | 1.3614
298.15 K | 914.35 | 1.358

CCOC=O [ethyl methanoate] + CCCCC
Details | excess molar enthalpy [kJ/mol] | mass density [kg/m3]
[1], 291.15 K, x1 = 0.0907 | 0.455 | –
[1], 291.15 K, x1 = 0.1625 | 0.699 | –
[1], 291.15 K, x1 = 0.2451 | 0.933 | –
[1], 291.15 K, x1 = 0.3245 | 1.114 | –
[1], 291.15 K, x1 = 0.3983 | 1.229 | –
[1], 291.15 K, x1 = 0.4484 | 1.273 | –
[1], 291.15 K, x1 = 0.4961 | 1.294 | –
[1], 291.15 K, x1 = 0.536 | 1.279 | –
[1], 291.15 K, x1 = 0.5703 | 1.255 | –
[1], 291.15 K, x1 = 0.605 | 1.232 | –
[1], 291.15 K, x1 = 0.6447 | 1.179 | –
[1], 291.15 K, x1 = 0.6893 | 1.11 | –
[1], 291.15 K, x1 = 0.7332 | 1.023 | –
[1], 291.15 K, x1 = 0.7743 | 0.913 | –
[1], 291.15 K, x1 = 0.8244 | 0.776 | –
[1], 291.15 K, x1 = 0.874 | 0.613 | –
[1], 291.15 K, x1 = 0.9259 | 0.405 | –
[1], 291.15 K, x1 = 0.9621 | 0.19 | –
[1], 298.15 K, x1 = 0.0714 | 0.444 | –
[1], 298.15 K, x1 = 0.1517 | 0.804 | –
[1], 298.15 K, x1 = 0.2221 | 1.051 | –
[1], 298.15 K, x1 = 0.3085 | 1.251 | –
[1], 298.15 K, x1 = 0.3849 | 1.333 | –
[1], 298.15 K, x1 = 0.445 | 1.346 | –
[1], 298.15 K, x1 = 0.4999 | 1.354 | –
[1], 298.15 K, x1 = 0.5411 | 1.339 | –
[1], 298.15 K, x1 = 0.5726 | 1.315 | –
[1], 298.15 K, x1 = 0.6159 | 1.284 | –
[1], 298.15 K, x1 = 0.6668 | 1.228 | –
[1], 298.15 K, x1 = 0.7209 | 1.137 | –
[1], 298.15 K, x1 = 0.7702 | 1.016 | –
[1], 298.15 K, x1 = 0.8273 | 0.864 | –
[1], 298.15 K, x1 = 0.8813 | 0.67 | –
[1], 298.15 K, x1 = 0.9227 | 0.435 | –
[1], 298.15 K, x1 = 0.9662 | 0.205 | –
[2], 291.15 K, x1 = 0.054 | – | 637.14
[2], 291.15 K, x1 = 0.063 | – | 638.38
[2], 291.15 K, x1 = 0.118 | – | 649.24
[2], 291.15 K, x1 = 0.161 | – | 658.03
[2], 291.15 K, x1 = 0.208 | – | 668.06
[2], 291.15 K, x1 = 0.305 | – | 689.98
[2], 291.15 K, x1 = 0.35 | – | 701.21
[2], 291.15 K, x1 = 0.405 | – | 715.14
[2], 291.15 K, x1 = 0.499 | – | 741.07
[2], 291.15 K, x1 = 0.595 | – | 769.91
[2], 291.15 K, x1 = 0.656 | – | 789.59
[2], 291.15 K, x1 = 0.751 | – | 822.65
[2], 291.15 K, x1 = 0.794 | – | 838.31
[2], 291.15 K, x1 = 0.85 | – | 859.54
[2], 291.15 K, x1 = 0.895 | – | 877.8
[2], 291.15 K, x1 = 0.941 | – | 896.94
[2], 291.15 K, x1 = 1 | – | 923.4
[2], 298.15 K, x1 = 0.058 | – | 631.15
[2], 298.15 K, x1 = 0.101 | – | 639.36
[2], 298.15 K, x1 = 0.104 | – | 639.54
[2], 298.15 K, x1 = 0.196 | – | 658.7
[2], 298.15 K, x1 = 0.252 | – | 670.7
[2], 298.15 K, x1 = 0.304 | – | 682.9
[2], 298.15 K, x1 = 0.405 | – | 708.3
[2], 298.15 K, x1 = 0.496 | – | 733.3
[2], 298.15 K, x1 = 0.609 | – | 766.9
[2], 298.15 K, x1 = 0.702 | – | 797.1
[2], 298.15 K, x1 = 0.801 | – | 832.2
[2], 298.15 K, x1 = 0.858 | – | 854.37
[2], 298.15 K, x1 = 0.909 | – | 875.28
[2], 298.15 K, x1 = 0.953 | – | 893.59
[2], 298.15 K, x1 = 1 | – | 914.35
